Results reported in the RepoRT retention time repository.

experiment: RP, Waters ACQUITY UPLC HSS T3, 0.1 mL/min; A: water + 0.01% formic acid; B: acetonitrile + 0.01% formic acid; gradient (min/%B) 0/10 38/45 45/45 55/0 60/0; details: stereoisomer not certain

SMILES	LC retention time
CC1(C)CCC(=Cc2ccc(Cl)cc2)C1(O)Cn1cncn1 (stereo not drawn) [Triticonazole]	33.8 min
CCc1cccc(CC)c1N(COC)C(=O)CCl [Alachlor]	39.4 min
CC(C)(C)C(=O)OCOC(=O)C1N2C(=O)C(N=CN3CCCCCC3)C2SC1(C)C (stereo not drawn) [Pivmecillinam]	26.4 min
CCOP(=S)(OCC)Oc1nc(Cl)c(Cl)cc1Cl [Chlorpyrifos]	45.5 min
CSc1nnc(C(C)(C)C)c(=O)n1N [Metribuzine]	15.6 min
CON(C)C(=O)Nc1ccc(Br)cc1 [Metobromuron]	24.5 min
COC(=O)N(OC)c1ccccc1COc1ccn(-c2ccc(Cl)cc2)n1 [Pyraclostrobine]	43.5 min
Nc1nc2ccccc2[nH]1 [Aminobenzimidazole]	4.74 min
CCNc1nc(NC(C)C)nc(SC)n1 [Ametryn]	20.1 min
CCCCCC(O)C=CC1C(=O)CC(O)C1CC=CCCCC(=O)O (stereo not drawn) [Prostaglandin D2]	27.6 min
CC(C)(C)C(O)C(Oc1ccc(Cl)cc1)n1cncn1 (stereo not drawn) [Triadimenol]	31.6 min
CC(C)C1(C)N=C(c2nc3ccccc3cc2C(=O)O)NC1=O (stereo not drawn) [Imazaquin]	16.3 min
CC12CCC3c4cc(O)c(O)cc4CCC3C1CCC2=O (stereo not drawn) [Estrone-2-hydroxy]	24.6 min
CC12CCC(=O)C=C1CCC1C2C(=O)CC2(C)C1CCC2(O)C(=O)CO (stereo not drawn) [Cortisone]	16.1 min
N#CN=C1SCCN1Cc1ccc(Cl)nc1 [Thiacloprid]	12.2 min
CCCCCC=CCC=CC=CC=CC(SCC(N)C(=O)NCC(=O)O)C(O)CCCC(=O)O (stereo not drawn) [Leukotriene D4]	33 min
COCC(=O)N(c1c(C)cccc1C)C(C)C(=O)OC (stereo not drawn) [Metalaxyl]	24.3 min
CCOCN(C(=O)CCl)c1c(C)cccc1CC [Acetochlor]	40.6 min
NC(=O)N1c2ccccc2C=Cc2ccccc21 [Carbamazepine]	18 min
CC(C)(C)C(O)(CCc1ccc(Cl)cc1)Cn1cncn1 (stereo not drawn) [Tebuconazole]	39.5 min
COCC(C)N(C(=O)CCl)c1c(C)csc1C (stereo not drawn) [Dimethenamid]	32.5 min

SMILES	LC retention time
O=C(Nc1ccccc1-c1ccc(Cl)cc1)c1cccnc1Cl [Boscalid]	38 min
O=C1Nc2ccc(Cl)cc2C(c2ccccc2)=NC1O (stereo not drawn) [Oxazepam]	20.6 min
COC=C(C(=O)OC)c1ccccc1Oc1cc(Oc2ccccc2C#N)ncn1 [Azoxystrobin]	38 min
CC12CCC3C(CC=C4CC(O)CCC43C)C1CCC2=O (stereo not drawn) [Dehydroepiandrosterone]	31.7 min
O=C(O)Cc1c[nH]c2ccc(O)cc12 [Hydroxyindoleacetic acid]	5.71 min
N[C@@H](Cc1cc(I)c(Oc2cc(I)c(O)c(I)c2)c(I)c1)C(=O)O [L-thyroxine]	25.6 min
CCC(C)n1c(=O)[nH]c(C)c(Br)c1=O (stereo not drawn) [Bromacil]	14.3 min
CN1COCN(Cc2cnc(Cl)s2)C1=N[N+](=O)[O-] [Thiamethoxam]	6.97 min
COc1cc(OC)nc(NC(=O)NS(=O)(=O)N(C)S(C)(=O)=O)n1 [Amidosulfuron]	21.2 min
CCCN(CCC)c1c([N+](=O)[O-])cc(S(N)(=O)=O)cc1[N+](=O)[O-] [Oryzalin]	41.2 min
CS(=O)(=O)c1ccc(C(=O)C2C(=O)CCCC2=O)c([N+](=O)[O-])c1 [Mesotrione]	16.5 min
CC(Oc1ccc(Cl)cc1Cl)C(=O)O (stereo not drawn) [Dichlorprop]	10 min
CNCC(O)c1ccc(O)c(O)c1 (stereo not drawn) [Epinephrine]	4.39 min
CC12CCC(=O)C=C1CCC1C2C(O)CC2(C=O)C(C(=O)CO)CCC12 (stereo not drawn) [Aldosterone]	13.8 min
Cc1ccc(C(=O)O)c(Cl)c1 [2-chloro-4-methylbenzoic acid]	44.3 min
O=C(O)COc1nc(Cl)c(Cl)cc1Cl [Triclopyr]	25 min
O=C(O)Cc1ccccc1Nc1c(Cl)cccc1Cl [Diclofenac]	39.6 min
Nc1ccccc1 [Aniline]	3.1 min
CC(C)N(C(=O)CCl)c1ccccc1 [Propachlore]	25.8 min
Oc1cc(Cl)ccc1Oc1ccc(Cl)cc1Cl [Triclosan]	43.8 min
Fc1ccc(C2CCNCC2COc2ccc3c(c2)OCO3)cc1 (stereo not drawn) [Paroxetine]	18.3 min

SMILES	LC retention time
COc1ccc(C(=CC(=O)N2CCOCC2)c2ccc(Cl)cc2)cc1OC [Dimethomorph]	32.7 min
Nc1c(Cl)c(F)nc(OCC(=O)O)c1Cl [Fluroxypyr]	14.4 min
CC(=O)C1CCC2C3CCC4CC(O)CCC4(C)C3CCC12C (stereo not drawn) [Allopregnanolone]	43.9 min
CS(=O)(=O)c1cc(C(F)(F)F)ccc1C(=O)c1cnoc1C1CC1 [Isoxaflutole]	35.3 min
CCCCCC(O)C=CC1C(O)CC(O)C1CC=CCCCC(=O)O (stereo not drawn) [Prostaglandin F2a]	25.6 min
CNC(=O)N(C)c1nc2ccccc2s1 [Methabenzthiazuron]	19.4 min
COc1cc2c(c3oc(=O)c4c(c13)CCC4=O)C1C=COC1O2 (stereo not drawn) [Aflatoxin B1]	17.5 min
CC12CCC(=O)C=C1CCC1C2C(O)CC2(C)C1CCC2(O)C(=O)CO (stereo not drawn) [Hydrocortisone]	15.9 min
CC(C)N(Cc1ccccc1)C(=O)C(C)(C)C [Tebutame]	39 min
Cc1cc(Cl)ccc1OCC(=O)O [2,4-mcpa]	17.2 min
CCNc1nc(NC(C)(C)C)[nH]c(=O)n1 [Tertbutylazine-2-hydroxy]	8.38 min
CCNC(=O)C(C)OC(=O)Nc1ccccc1 (stereo not drawn) [Carbetamide]	13.5 min
CCCOC(=O)c1ccc(O)cc1 [Propylparaben]	22 min
CS(=O)(=O)c1ccc(C(=O)C2C(=O)CCCC2=O)c(Cl)c1 [Sulcotrione]	18.6 min
CNCCC(Oc1ccc(C(F)(F)F)cc1)c1ccccc1 (stereo not drawn) [Fluoxetine]	23.7 min
CCCCCC(O)C=CC1C(O)CC(=O)C1CC=CCCCC(=O)O (stereo not drawn) [Prostaglandin E2]	26.5 min
CC(C)NC(=O)N1CC(=O)N(c2cc(Cl)cc(Cl)c2)C1=O [Iprodione]	39.9 min
CC12CCC(=O)C=C1CCC1C2CCC2(C)C(O)CCC12 (stereo not drawn) [Testosterone]	28.9 min
CN1CCC23c4c5ccc(O)c4OC2C(O)C=CC3C1C5 (stereo not drawn) [Morphine]	4.26 min
CCCOc1nn(C(=O)NS(=O)(=O)c2ccccc2C(=O)OC)c(=O)n1C [Propoxycarbazone]	22.1 min
Cc1ccc(NC(=O)N(C)C)cc1Cl [Chlortoluron]	20.5 min
